Results reported in patent US11832638B2, “N-acyl derivatives of gamma amino-butyric acid and beta alanine as food flavouring compounds” (GIVAUDAN SA, priority 2012, dated 2023).

Legend:
Tasting in cheese sauce = conditions: 0.5 PPM in cheese sauce 5% fat 1.6% salt
Protocol: (§1) The following formulations were prepared and tasted by trained panelists.
Cheese sauce: 5% fat 1.6% salt

[1] = Comparison in a strawberry drink; conditions: 2 ppm, 7% sucrose, 0.1% citric acid, strawberry flavour 0.015%
Text: Comparison in a Strawberry Drink
Base is 7% sucrose, 0.1% citric acid, and a proprietary strawberry flavour @0.015%

[2] = Test in peach flavoured drink; conditions: 1 ppm, water, 8% sugar, 0.1% citric acid, peach flavour 0.05%
Text: Test in Peach Flavoured Drink:
Base is water, 8% sugar, 0.1% citric acid, and proprietary peach flavour at 0.05%

Soy milk = conditions: 2 ppm, 5% sucrose, milk flavor 0.1%
Protocol: In a soy milk sweetened with 5% sucrose by weight, flavoured with a proprietary milk flavour at a dosage of 0.1%, C18:2-gaba was added at 2 ppm
Samples were evaluated by expert tasters. Tasters were asked to describe the samples focusing on authentic taste , mouthfeel, fullness, salivation, sweetness, juiciness, richness, long lastingness and fattiness.

[3] = Tasting in fish based product (fish sauce)
Protocol: as §1
(§2) Salt level pure product between 5-40%
(§3) Salt level in application 0.3-1.0%
C18:2-gaba-(0.5 ppm) was added to a 1% diluted fish sauce sauce (0.27% salt).
C18:2-gaba-(0.5 ppm) was added to pure fish sauce (27% salt).

[4] = UHT sweetened banana flavoured milk, different fat levels; conditions: banana flavour 0.04%
Protocol: UHT Sweetened Banana Flavoured Milk, With Different Fat Levels
In a UHT milk with 0% and 3% fat sweetened with 4% sucrose by weight, flavoured with proprietary banana flavour dosed at 0.04%. C18:2 gaba was added at 0.25 ppm, 0.5 ppm and 1 ppm.
Samples were evaluated by expert tasters. Tasters were asked to describe the samples focusing on authentic taste, mouthfeel, fullness, salivation, sweetness, juiciness, richness, long lastingness and fattiness.

[5] = Tasting in low fat salad dressing; conditions: 0.5 PPM in low fat salad dressing (13.6% fat)
Protocol: as §1
low fat salad dressing (13.6% Fat)

Tasting of baked pizza = conditions: 0.5 PPM in the crust and 0.5 PPM in the tomato sauce, baked in hot air oven at 200 degrees Celsius
Text: Differentiator high temperature 100-250 degrees Celsius in hot air baking process
C18:2-gaba @ 0.5 PPM in the crust and @ 0.5 PPM in the tomato sauce
The pizza was topped off with cheese and baked in a hot air oven @ 200 degrees Celsius

[6] = Comparison in a mango juice drink; conditions: 2 ppm, 8% sucrose, 0.1% citric acid, 0.18 g clear mango juice, mango flavour 0.05%
Text: Comparison in a Mango Juice Drink
Base is 8% sucrose, 0.1% citric acid, 0.18 g clear mango juice, and a proprietary mango flavour at 0.05%.

[7] = Test on organic acids in a beverage; conditions: 1 ppm, water, 7% sucrose
Protocol: Testing With Beverages Containing Organic Acids From 0.01% to 7%
Test 18:2 Gaba on Organic Acids in a Beverage.
In a solution containing water, 7% sucrose by weight, and different organic acids, C18:2-gaba was added at 1 ppm. We observed taste effects on the acid perception upon addition of C18:2-gaba.
Base is water, 7% Sucrose by weight, Tartaric acid at 0.121% by weight
Base is water, 7% Sucrose by weight, Malic acid at 0.1081% by weight
Base is water, 7% Sucrose by weight, Citric acid at 0.1% by weight
Base is water, 7% Sucrose by weight, Fumaric acid at 0.0936% by weight

[8] = Calve 60% reduced fat mayonnaise; conditions: 0.5 ppm, Calve mayonnaise 60% reduced fat
Text: Calve 60% Reduced Fat Mayonnaise
Base is Calve Mayonnaise 60% reduced fat (market Product)

[9] = Tasting in soy based product (salt reduced kikoman soy sauce)
Protocol: as §1, §2, §3
C18:2-gaba-(0.5 ppm) was added to a 1% diluted salt reduced kikoman soy sauce (9% salt).
C18:2-gaba-(0.5 ppm) was added to pure salt reduced kikoman soy sauce (9% salt).

[10] = Test on Baileys cream liqueur; conditions: 1 ppm
Protocol: Test on Baileys Cream Liqueur:
In Baileys cream liqueur (Market Product) C18:2-gaba was added at 1 ppm.
Samples were evaluated by expert tasters. Tasters were asked to describe the samples focusing on authentic taste, alcohol impact, mouthfeel, fullness, salivation, sweetness, bitterness, richness, long lastingness and fattiness.
Base is Baileys cream liqueur

[11] = Calve salad dressing low fat; conditions: 0.5 ppm
Text: Calve Salad Dressing Low Fat:
Base is Calve salad dressing (market product)

[12] = Strawberry flavoured sugar sweetened yoghurt; conditions: 2 ppm, 1.5% fat yoghurt base, 8% sucrose, strawberry flavour 0.015%
Text: Strawberry Flavoured Sugar Sweetened Yoghurt
The base consisted of a 1.5% fat yoghurt base, sweetened with 8% sucrose by weight, flavoured with a proprietary strawberry flavour @ 0.015%.

[13] = Activa strawberry yoghurt; conditions: 2 ppm, full fat Activa strawberry flavoured yoghurt
Text: Activa Strawberry Yoghurt
In a Full fat, Activa strawberry flavoured yoghurt C18:2-gaba

[14] = Tasting in air expanded base with cheese seasoning; conditions: air expanded base 3% fat
Protocol: Air Expanded Base An air expanded base (Rice, wheat, Tapioca, potato, salt, sugar, modified starch), containing 3% fat and flavored with cheese seasoning containing salt, MSG, dairy, organic acids, sugars and flavor. The following compounds were added to the base at the indicated levels and the tasting results are reported: […]

[15] = Test in pear flavoured drink; conditions: 1 ppm, water, 7% sugar, 0.1% citric acid, pear flavour 0.025%
Text: Test in Pear Flavoured Drink:
Base: water, 7% sugar, 0.1% citric acid, proprietary pear flavour at 0.025%

[16] = Test on menthol fondant (1%); conditions: 2 ppm, fondant 65%, sugar syrup 34%, menthol flavour 1%
Text: Test on Menthol Fondant (1%)
Base is Fondant 65%, sugar syrup 34% and a proprietary menthol flavour at 1%

CCCCC/C=C\C/C=C\CCCCCCCC(=O)NCCCC(=O)O [C18:2-gaba]
tasting result (trained panelists) (Tasting in cheese sauce): Full, Salty, cheese bite expanding | taste description [1]: fatty mouthfeel, creamy strawberry, fruity and juicy | taste description [2]: fruity peach, long lasting, juicy and fatty skin like very authentic | description by expert tasters (Soy milk): clean, creamy, good masking of the soy bean taste, creamy and milky | tasting result (trained panelists) ([3]; 0.5 ppm in 1% diluted fish sauce (0.27% salt)): stronger in umami, longer lasting and richer | tasting result (trained panelists) ([3]; 0.5 ppm in pure fish sauce (27% salt)): strong in body and mouthfeel, more salty, richer with more rounded fish notes | description by expert tasters ([4]; 0.25 ppm, UHT milk 0% fat): fuller banana, more authentic, more sweet | description by expert tasters ([4]; 0.25 ppm, UHT milk 3% fat): more authentic, less estery and more round | description by expert tasters ([4]; 0.5 ppm, UHT milk 0% fat): fuller banana, authentic, creamy and sweet | description by expert tasters ([4]; 0.5 ppm, UHT milk 3% fat): creamy banana | description by expert tasters ([4]; 1 ppm, UHT milk 0% fat): creamy, creamy banana, sweet aftertaste | description by expert tasters ([4]; 1 ppm, UHT milk 3% fat): creamy long lasting and more authentic and more impact | tasting result (trained panelists) [5]: better mouthfeel that was impressively creamy | taste of crust, tomato and aftertaste of pizza (Tasting of baked pizza): less dry, more succulent and the tomato was richer, sweeter and the total lingering aftertaste was very rich and pleasant | taste description [6]: full long lasting nice juicy, almost a bit salty | taste description ([6]; listed as C18:2 gaba): fatty skin like, juicy, authentic | taste effects on the acid perception ([7]; citric acid 0.1% by weight): decreased sharp acidic perception, full body mouthfeel, higher higher mouth watering, and an impression of the juicy notes of citrus fruit (orange, lemon) | taste effects on the acid perception ([7]; fumaric acid 0.0936% by weight): decreased sharp acidic perception, full body mouthfeel effects, higher sweet effects, and an impression of the full notes characteristic of sweet red & vanillic flavor types (vanilla, chocolate, raspberry, cherry, especially benzaldhyde) | taste effects on the acid perception ([7]; malic acid 0.1081% by weight): decreased sharp acidic perception, give fuller body, mouthfeel, higher mouthwatering, and an impression of the flesh and skin notes of fruit (apple) | taste effects on the acid perception ([7]; tartaric acid 0.121% by weight): decreased sharp acidic perception, full body mouthfeel, higher mouthwatering, more immediate (upfront hit), and an impression of the flesh of fruit (grape, apple, banana, pear-like) | taste description [8]: full, rich , creamy, more egg yolk taste | tasting result (trained panelists) ([9]; 0.5 ppm in 1% diluted salt reduced kikoman soy sauce (9% salt)): stronger, more umami, long lasting, richer | tasting result (trained panelists) ([9]; 0.5 ppm in pure salt reduced kikoman soy sauce (9% salt)): strong in body and mouthfeel,and more salty | description by expert tasters [10]: strongly enhanced alcohol effect, more cocoa, very creamy and long lasting aftertaste | taste description [11]: much fuller, creamy, rich, less acidic | taste description [12]: very creamy and fresh strawberry | taste description [13]: very creamy, full and fresh strawberry | tasting result ([14]; 0.5 ppm): Increased dairy, cheese | tasting result ([14]; 1 ppm): Fatty full, cheesy, cheese crust, long lasting, cover base | taste description [15]: long lasting, juicy and fatty skin like very authentic, like eating the fruit instead of drinking a drink | taste description [16]: increased menthol impact, stronger cooling more sweet, long lasting, fresh
